According to PubChem BioAssay AID1963439 (Molecular Pharmacology Branch, DTP, NCI, 2024):

Test system: NCI-H196 complex spheroids with HUVEC/MSC, growth % T/C
Experiment: Anticancer human tumor NCI-H196 cell line growth inhibition [Asc];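 note: spheroids exposed to compound for 7 days before measurement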;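 for viability, T/C: 100% = DMSO vehicle control wells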
Conditions: for IC50: curve of first compound; for viability, T/C: stronger effect = lower value
In short: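 Complex spheroids combining tumor cells with HUVEC endothelial cells and human MSCs, at 37 degrees C, 5% CO2; agents tested alone or combined, half-log dilutions from at or near clinical Cmax, or 10 microM if Cmax unknown.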

[1] = second compound 0.01 µM, first compound 0.00316 µM
[2] = second compound 0.01 µM, first compound 0.01 µM
[3] = second compound 0.01 µM, first compound 0.0316 µM
[4] = second compound 0.01 µM, first compound 0.1 µM
[5] = second compound 0.0316 µM, first compound 0.00316 µM
[6] = second compound 0.0316 µM, first compound 0.01 µM
[7] = second compound 0.0316 µM, first compound 0.0316 µM
[8] = second compound 0.0316 µM, first compound 0.1 µM
[9] = second compound 0.1 µM, first compound 0.00316 µM
[10] = second compound 0.1 µM, first compound 0.01 µM
[11] = second compound 0.1 µM, first compound 0.0316 µM
[12] = second compound 0.1 µM, first compound 0.1 µM
[13] = second compound 0.316 µM, first compound 0.00316 µM
[14] = second compound 0.316 µM, first compound 0.01 µM
[15] = second compound 0.316 µM, first compound 0.0316 µM
[16] = second compound 0.316 µM, first compound 0.1 µM
[17] = second compound 1 µM, first compound 0.00316 µM
[18] = second compound 1 µM, first compound 0.01 µM
[19] = second compound 1 µM, first compound 0.0316 µM
[20] = second compound 1 µM, first compound 0.1 µM

NC1CCC(NC2CC2c2ccccc2)CC1 (stereo not given) + CNC(C)C(=O)NC1CN(S(=O)(=O)c2cccc(S(=O)(=O)N3CCC4CCC(C(=O)NC(c5ccccc5)c5ccccc5)N4C(=O)C(NC(=O)C(C)NC)C3)c2)CCC2CCC(C(=O)NC(c3ccccc3)c3ccccc3)N2C1=O
IC50 (second compound 0.01 µM): < 0.000316 µM | IC50 (second compound 0.0316 µM): < 0.000316 µM | IC50 (second compound 0.1 µM): < 0.000316 µM | IC50 (second compound 0.316 µM): < 0.000316 µM | IC50 (second compound 1 µM): < 0.000316 µM | viability, T/C (second compound 0.01 µM, first compound 0.000316 µM): 4.85% | viability, T/C (second compound 0.01 µM, first compound 0.001 µM): 7.42% | viability, T/C [1]: 7.08% | viability, T/C [2]: 4.94% | viability, T/C [3]: 4.47% | viability, T/C [4]: 5.83% | viability, T/C (second compound 0.0316 µM, first compound 0.000316 µM): 3.28% | viability, T/C (second compound 0.0316 µM, first compound 0.001 µM): 3.9% | viability, T/C [5]: 6.09% | viability, T/C [6]: 4.65% | viability, T/C [7]: 4.22% | viability, T/C [8]: 4.12% | viability, T/C (second compound 0.1 µM, first compound 0.000316 µM): 3.22% | viability, T/C (second compound 0.1 µM, first compound 0.001 µM): 3.76% | viability, T/C [9]: 3.15% | viability, T/C [10]: 3.8% | viability, T/C [11]: 2.91% | viability, T/C [12]: 5.63% | viability, T/C (second compound 0.316 µM, first compound 0.000316 µM): 3.14% | viability, T/C (second compound 0.316 µM, first compound 0.001 µM): 3.25% | viability, T/C [13]: 3.34% | viability, T/C [14]: 2.68% | viability, T/C [15]: 2.82% | viability, T/C [16]: 2.95% | viability, T/C (second compound 1 µM, first compound 0.000316 µM): 3.04% | viability, T/C (second compound 1 µM, first compound 0.001 µM): 4.43% | viability, T/C [17]: 3.1% | viability, T/C [18]: 3.47% | viability, T/C [19]: 3.24% | viability, T/C [20]: 2.28%

O=C(c1cc(Cc2n[nH]c(=O)c3ccccc23)ccc1F)N1CCN(C(=O)C2CC2)CC1 + CCN1C(C(=O)NC23CCC(C(=O)O)(CC2)CC3)C(c2cccc(Cl)c2F)C2(C(=O)Nc3cc(Cl)ccc32)C12CCCCC2
IC50 (second compound 0.03 µM): > 10 µM | IC50 (second compound 0.0949 µM): > 10 µM | IC50 (second compound 0.3 µM): > 10 µM | IC50 (second compound 0.949 µM): > 10 µM | IC50 (second compound 3 µM): > 10 µM | viability, T/C (second compound 0.03 µM, first compound 0.0316 µM): 102% | viability, T/C (second compound 0.03 µM, first compound 0.1 µM): 116% | viability, T/C (second compound 0.03 µM, first compound 0.316 µM): 95.9% | viability, T/C (second compound 0.03 µM, first compound 1 µM): 100% | viability, T/C (second compound 0.03 µM, first compound 3.16 µM): 104% | viability, T/C (second compound 0.03 µM, first compound 10 µM): 97.9% | viability, T/C (second compound 0.0949 µM, first compound 0.0316 µM): 108% | viability, T/C (second compound 0.0949 µM, first compound 0.1 µM): 105% | viability, T/C (second compound 0.0949 µM, first compound 0.316 µM): 110% | viability, T/C (second compound 0.0949 µM, first compound 1 µM): 100% | viability, T/C (second compound 0.0949 µM, first compound 3.16 µM): 102% | viability, T/C (second compound 0.0949 µM, first compound 10 µM): 104% | viability, T/C (second compound 0.3 µM, first compound 0.0316 µM): 106% | viability, T/C (second compound 0.3 µM, first compound 0.1 µM): 107% | viability, T/C (second compound 0.3 µM, first compound 0.316 µM): 123% | viability, T/C (second compound 0.3 µM, first compound 1 µM): 116% | viability, T/C (second compound 0.3 µM, first compound 3.16 µM): 107% | viability, T/C (second compound 0.3 µM, first compound 10 µM): 100% | viability, T/C (second compound 0.949 µM, first compound 0.0316 µM): 120% | viability, T/C (second compound 0.949 µM, first compound 0.1 µM): 124% | viability, T/C (second compound 0.949 µM, first compound 0.316 µM): 121% | viability, T/C (second compound 0.949 µM, first compound 1 µM): 121% | viability, T/C (second compound 0.949 µM, first compound 3.16 µM): 121% | viability, T/C (second compound 0.949 µM, first compound 10 µM): 105% | viability, T/C (second compound 3 µM, first compound 0.0316 µM): 116% | viability, T/C (second compound 3 µM, first compound 0.1 µM): 120% | viability, T/C (second compound 3 µM, first compound 0.316 µM): 108% | viability, T/C (second compound 3 µM, first compound 1 µM): 110% | viability, T/C (second compound 3 µM, first compound 3.16 µM): 128% | viability, T/C (second compound 3 µM, first compound 10 µM): 110%

CCN1CCN(Cc2ccc(Nc3ncc(F)c(-c4cc(F)c5nc(C)n(C(C)C)c5c4)n3)nc2)CC1 + CNC(C)C(=O)NC1CN(S(=O)(=O)c2cccc(S(=O)(=O)N3CCC4CCC(C(=O)NC(c5ccccc5)c5ccccc5)N4C(=O)C(NC(=O)C(C)NC)C3)c2)CCC2CCC(C(=O)NC(c3ccccc3)c3ccccc3)N2C1=O
IC50 (second compound 0.01 µM): < 0.00316 µM | IC50 (second compound 0.0316 µM): < 0.00316 µM | IC50 (second compound 0.1 µM): < 0.00316 µM | IC50 (second compound 0.316 µM): < 0.00316 µM | IC50 (second compound 1 µM): < 0.00316 µM | viability, T/C [1]: 5.3% | viability, T/C [2]: 6.9% | viability, T/C [3]: 9.46% | viability, T/C [4]: 7.15% | viability, T/C (second compound 0.01 µM, first compound 0.316 µM): 6.5% | viability, T/C (second compound 0.01 µM, first compound 1 µM): 5.95% | viability, T/C [5]: 4.57% | viability, T/C [6]: 4.1% | viability, T/C [7]: 3.84% | viability, T/C [8]: 4.62% | viability, T/C (second compound 0.0316 µM, first compound 0.316 µM): 6.92% | viability, T/C (second compound 0.0316 µM, first compound 1 µM): 5.07% | viability, T/C [9]: 3.7% | viability, T/C [10]: 4.39% | viability, T/C [11]: 3.41% | viability, T/C [12]: 3.01% | viability, T/C (second compound 0.1 µM, first compound 0.316 µM): 4.87% | viability, T/C (second compound 0.1 µM, first compound 1 µM): 3.86% | viability, T/C [13]: 2.69% | viability, T/C [14]: 4.01% | viability, T/C [15]: 3.79% | viability, T/C [16]: 4.21% | viability, T/C (second compound 0.316 µM, first compound 0.316 µM): 3.33% | viability, T/C (second compound 0.316 µM, first compound 1 µM): 3.67% | viability, T/C [17]: 2.84% | viability, T/C [18]: 3.75% | viability, T/C [19]: 3.08% | viability, T/C [20]: 3.26% | viability, T/C (second compound 1 µM, first compound 0.316 µM): 3.93% | viability, T/C (second compound 1 µM, first compound 1 µM): 3.85%

Cc1nc(N2CCC3(CC2)COC(C)C3N)c(CO)nc1Sc1ccnc(N)c1Cl (stereo not given) + CCN1C(C(=O)NC23CCC(C(=O)O)(CC2)CC3)C(c2cccc(Cl)c2F)C2(C(=O)Nc3cc(Cl)ccc32)C12CCCCC2
IC50 (second compound 0.03 µM): 1.54 µM | IC50 (second compound 0.0949 µM): 1.9 µM | IC50 (second compound 0.3 µM): 1.6 µM | IC50 (second compound 0.949 µM): 1.73 µM | IC50 (second compound 3 µM): 1.57 µM | viability, T/C (second compound 0.03 µM, first compound 0.00949 µM): 102% | viability, T/C (second compound 0.03 µM, first compound 0.03 µM): 103% | viability, T/C (second compound 0.03 µM, first compound 0.0949 µM): 115% | viability, T/C (second compound 0.03 µM, first compound 0.3 µM): 102% | viability, T/C (second compound 0.03 µM, first compound 0.949 µM): 64.6% | viability, T/C (second compound 0.03 µM, first compound 3 µM): 30.2% | viability, T/C (second compound 0.0949 µM, first compound 0.00949 µM): 108% | viability, T/C (second compound 0.0949 µM, first compound 0.03 µM): 113% | viability, T/C (second compound 0.0949 µM, first compound 0.0949 µM): 109% | viability, T/C (second compound 0.0949 µM, first compound 0.3 µM): 95.5% | viability, T/C (second compound 0.0949 µM, first compound 0.949 µM): 74.1% | viability, T/C (second compound 0.0949 µM, first compound 3 µM): 34.5% | viability, T/C (second compound 0.3 µM, first compound 0.00949 µM): 118% | viability, T/C (second compound 0.3 µM, first compound 0.03 µM): 124% | viability, T/C (second compound 0.3 µM, first compound 0.0949 µM): 119% | viability, T/C (second compound 0.3 µM, first compound 0.3 µM): 99.8% | viability, T/C (second compound 0.3 µM, first compound 0.949 µM): 69.1% | viability, T/C (second compound 0.3 µM, first compound 3 µM): 27.9% | viability, T/C (second compound 0.949 µM, first compound 0.00949 µM): 124% | viability, T/C (second compound 0.949 µM, first compound 0.03 µM): 137% | viability, T/C (second compound 0.949 µM, first compound 0.0949 µM): 119% | viability, T/C (second compound 0.949 µM, first compound 0.3 µM): 107% | viability, T/C (second compound 0.949 µM, first compound 0.949 µM): 72.1% | viability, T/C (second compound 0.949 µM, first compound 3 µM): 29.9% | viability, T/C (second compound 3 µM, first compound 0.00949 µM): 136% | viability, T/C (second compound 3 µM, first compound 0.03 µM): 130% | viability, T/C (second compound 3 µM, first compound 0.0949 µM): 121% | viability, T/C (second compound 3 µM, first compound 0.3 µM): 106% | viability, T/C (second compound 3 µM, first compound 0.949 µM): 67.4% | viability, T/C (second compound 3 µM, first compound 3 µM): 26.5%
